Values joined by “and” are separate entries in the source; they are usually repeats but may differ in a detail not shown here. Identical values can stand only once. Toxic doses and inconclusive results are not listed. How the source made its calls: active means survival T/C of 150% or more; inactive means T/C below 125% in these data.
System: C57BL/6 mice, intracerebral ependymoblastoma, median survival T/C
Assay: NCI In Vivo Anticancer Drug Screen. Data for tumor model Ependymoblastoma (intracerebral) in C57BL/6 mice
Conditions: endpoint: median survival time, higher = longer survival
Procedure: The antitumor activity of compounds was measured in mice bearing transplantable tumors. Survival or tumor size were measured and the results are expressed as the measurement made in the treated group (T) divided by the measurement made in the vehicle treated control group (C). The tumor model used in this assay is Ependymoblastoma (intracerebral) in C57BL/6 mice

Measured: T/C

O=C(N[C@H](CO)[C@H](O)c1ccc([N+](=O)[O-])cc1)C(Cl)Cl
inactive: dose: 90.0 mg/kg/injection, schedule: Q01DX005 (ip), vehicle: saline with Tween-80 97 % of control | dose: 180.0 mg/kg/injection, schedule: Q01DX005 (ip), vehicle: saline with Tween-80 95 % of control and 100 % of control | dose: 360.0 mg/kg/injection, schedule: Q01DX005 (ip), vehicle: saline with Tween-80 87 % of control and 101 % of control | dose: 720.0 mg/kg/injection, schedule: Q01DX005 (ip), vehicle: saline with Tween-80 98 % of control

CC[C@]1(O)C[C@H]2CN(CCc3c([nH]c4ccccc34)[C@@](C(=O)OC)(c3cc4c(cc3OC)N(C=O)[C@H]3[C@@](O)(C(=O)OC)[C@H](OC(C)=O)[C@]5(CC)C=CCN6CC[C@]43[C@@H]65)C2)C1
inactive: dose: 0.05 mg/kg/injection, schedule: Q01DX005 (ip), vehicle: saline 108 % of control | dose: 0.1 mg/kg/injection, schedule: Q01DX005 (ip), vehicle: saline 103 % of control | dose: 0.2 mg/kg/injection, schedule: Q01DX005 (ip), vehicle: saline 105 % of control | dose: 0.4 mg/kg/injection, schedule: Q01DX005 (ip), vehicle: saline 124 % of control

O=c1c(O)c(-c2ccc(O)c(O)c2)oc2cc(O)cc(O)c12
inactive: dose: 12.5 mg/kg/injection, schedule: Q01DX005 (ip), vehicle: Klucel (hydroxypropylcellulose) (HPC) 95 % of control | dose: 12.5 mg/kg/injection, schedule: Q01DX005 (ip), vehicle: other 107 % of control | dose: 25.0 mg/kg/injection, schedule: Q01DX005 (ip), vehicle: Klucel (hydroxypropylcellulose) (HPC) 104 % of control | dose: 25.0 mg/kg/injection, schedule: Q01DX005 (ip), vehicle: other 93 % of control | dose: 50.0 mg/kg/injection, schedule: Q01DX005 (ip), vehicle: Klucel (hydroxypropylcellulose) (HPC) 100 % of control | dose: 50.0 mg/kg/injection, schedule: Q01DX005 (ip), vehicle: other 91 % of control | dose: 100.0 mg/kg/injection, schedule: Q01DX005 (ip), vehicle: Klucel (hydroxypropylcellulose) (HPC) 99 % of control | dose: 100.0 mg/kg/injection, schedule: Q01DX005 (ip), vehicle: other 102 % of control | dose: 200.0 mg/kg/injection, schedule: Q01DX005 (ip), vehicle: other 105 % of control

COc1cc(C[C@H]2c3cc(OC)c(OC)cc3CCN2C)c(Oc2cc3c(cc2OC)-c2c(OC)c(OC)cc4c2[C@H](C3)N(C)CC4)cc1OC
inactive: dose: 12.5 mg/kg/injection, schedule: Q01DX005 (ip), vehicle: saline with Tween-80 97 % of control | dose: 25.0 mg/kg/injection, schedule: Q01DX005 (ip), vehicle: saline with Tween-80 92 % of control | dose: 50.0 mg/kg/injection, schedule: Q01DX005 (ip), vehicle: saline with Tween-80 100 % of control | dose: 100.0 mg/kg/injection, schedule: Q01DX005 (ip), vehicle: saline with Tween-80 93 % of control

Nc1ncnc2c1ncn2C1OC(COP(=O)(O)O)C(O)C1O (configuration not stated)
inactive: dose: 100.0 mg/kg/injection, schedule: Q01DX005 (ip), vehicle: saline 104 % of control | dose: 200.0 mg/kg/injection, schedule: Q01DX005 (ip), vehicle: saline 100 % of control | dose: 800.0 mg/kg/injection, schedule: Q01DX005 (ip), vehicle: saline 119 % of control

NC(CSC(c1ccccc1)(c1ccccc1)c1ccccc1)C(=O)O (configuration not stated)
inactive: dose: 32.0 mg/kg/injection, schedule: Q01DX005 (ip), vehicle: Klucel (hydroxypropylcellulose) (HPC) 99 % of control | dose: 64.0 mg/kg/injection, schedule: Q01DX005 (ip), vehicle: Klucel (hydroxypropylcellulose) (HPC) 109 % of control

CN(C)CCCNc1c2ccccc2nc2cccc([N+](=O)[O-])c12
inactive: dose: 0.01 mg/kg/injection, schedule: Q## X006 (ip), vehicle: saline 99 % of control | dose: 0.03 mg/kg/injection, schedule: Q01DX001 (ip), vehicle: saline 101 % of control | dose: 0.03 mg/kg/injection, schedule: Q## X006 (ip), vehicle: saline 94 % of control | dose: 0.06 mg/kg/injection, schedule: Q01DX001 (ip), vehicle: saline 92 % of control | dose: 0.06 mg/kg/injection, schedule: Q01DX005 (ip), vehicle: saline 99 % of control and 100 % of control and 102 % of control | dose: 0.06 mg/kg/injection, schedule: Q#A X002 (ip), vehicle: saline 101 % of control and 117 % of control | dose: 0.12 mg/kg/injection, schedule: Q01DX001 (ip), vehicle: saline 92 % of control | dose: 0.12 mg/kg/injection, schedule: Q01DX005 (ip), vehicle: saline 98 % of control | dose: 0.12 mg/kg/injection, schedule: Q#A X002 (ip), vehicle: saline 106 % of control and 111 % of control | dose: 0.13 mg/kg/injection, schedule: Q01DX005 (ip), vehicle: saline 94 % of control | dose: 0.25 mg/kg/injection, schedule: Q01DX001 (ip), vehicle: saline 91 % of control | dose: 0.25 mg/kg/injection, schedule: Q#A X002 (ip), vehicle: saline 88 % of control and 101 % of control | dose: 0.5 mg/kg/injection, schedule: Q01DX001 (oral), vehicle: saline 95 % of control | dose: 0.5 mg/kg/injection, schedule: Q#A X002 (ip), vehicle: saline 94 % of control and 100 % of control | dose: 1.0 mg/kg/injection, schedule: Q01DX001 (oral), vehicle: suspension in saline 100 % of control | dose: 1.0 mg/kg/injection, schedule: Q#A X002 (ip), vehicle: saline 87 % of control and 91 % of control | dose: 2.0 mg/kg/injection, schedule: Q01DX001 (ip), vehicle: saline 89 % of control | dose: 2.0 mg/kg/injection, schedule: Q01DX001 (oral), vehicle: saline 104 % of control | dose: 2.0 mg/kg/injection, schedule: Q01DX001 (oral), vehicle: suspension in saline 100 % of control | dose: 2.0 mg/kg/injection, schedule: Q#A X002 (ip), vehicle: saline 87 % of control | dose: 4.0 mg/kg/injection, schedule: Q01DX001 (ip), vehicle: saline 87 % of control | dose: 4.0 mg/kg/injection, schedule: Q01DX001 (oral), vehicle: suspension in saline 91 % of control | dose: 8.0 mg/kg/injection, schedule: Q01DX001 (oral), vehicle: saline 96 % of control | dose: 8.0 mg/kg/injection, schedule: Q01DX001 (oral), vehicle: suspension in saline 96 % of control | dose: 16.0 mg/kg/injection, schedule: Q01DX001 (oral), vehicle: suspension in saline 91 % of control | dose: 3.9 micrograms/kg/injection, schedule: Q## X006 (ip), vehicle: saline 97 % of control | dose: 7.8 micrograms/kg/injection, schedule: Q01DX005 (ip), vehicle: saline 103 % of control | dose: 7.8 micrograms/kg/injection, schedule: Q## X006 (ip), vehicle: saline 97 % of control | dose: 15.6 micrograms/kg/injection, schedule: Q01DX005 (ip), vehicle: saline 110 % of control | dose: 15.6 micrograms/kg/injection, schedule: Q## X006 (ip), vehicle: saline 92 % of control | dose: 16.0 micrograms/kg/injection, schedule: Q01DX005 (ip), vehicle: saline 102 % of control and 113 % of control | dose: 31.2 micrograms/kg/injection, schedule: Q## X006 (ip), vehicle: saline 95 % of control | dose: 32.0 micrograms/kg/injection, schedule: Q01DX005 (ip), vehicle: saline 104 % of control and 111 % of control | dose: 62.5 micrograms/kg/injection, schedule: Q01DX005 (ip), vehicle: saline 107 % of control and 109 % of control | dose: 62.5 micrograms/kg/injection, schedule: Q## X006 (ip), vehicle: saline 97 % of control | dose: 63.0 micrograms/kg/injection, schedule: Q01DX005 (ip), vehicle: saline 103 % of control and 105 % of control

— PubChem BioAssay AID222 (DTP/NCI, 2004)
